Laboratory results reported in PubChem BioAssay (NCI).
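Five concentrations, 48 hours, 96-well plates. The concentration for full growth arrest is given as TGI.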

What was measured:
Assay in all cases: DTP human tumour cell line panel, 48 h
786-0 renal = test system: 786-0 renal
A498 renal = test system: A498 renal
A549 NSCLC = test system: A549 NSCLC
ACHN renal = test system: ACHN renal
BT-549 breast = test system: BT-549 breast
CAKI-1 renal = test system: CAKI-1 renal
CCRF-CEM leukemia = test system: CCRF-CEM leukemia
COLO 205 colon = test system: COLO 205 colon
DU-145 prostate = test system: DU-145 prostate
EKVX NSCLC = test system: EKVX NSCLC
HCC-2998 colon = test system: HCC-2998 colon
HCT-116 colon = test system: HCT-116 colon
HCT-15 colon = test system: HCT-15 colon
HL-60(TB) leukemia = test system: HL-60(TB) leukemia
HOP-62 NSCLC = test system: HOP-62 NSCLC
HOP-92 NSCLC = test system: HOP-92 NSCLC
HT29 colon = test system: HT29 colon
IGROV1 ovarian = test system: IGROV1 ovarian
K-562 leukemia = test system: K-562 leukemia
KM12 colon = test system: KM12 colon
LOX IMVI melanoma = test system: LOX IMVI melanoma
M14 melanoma = test system: M14 melanoma
MALME-3M melanoma = test system: MALME-3M melanoma
MCF7 breast = test system: MCF7 breast
MDA-MB-231 breast = test system: MDA-MB-231 breast
MDA-MB-435 = test system: MDA-MB-435
MDA-N = test system: MDA-N
MOLT-4 leukemia = test system: MOLT-4 leukemia
NCI-H226 lung = test system: NCI-H226 lung
NCI-H23 lung = test system: NCI-H23 lung
NCI-H460 lung = test system: NCI-H460 lung
NCI-H522 lung = test system: NCI-H522 lung
NCI/ADR-RES ovarian = test system: NCI/ADR-RES ovarian
OVCAR-3 ovarian = test system: OVCAR-3 ovarian
OVCAR-4 ovarian = test system: OVCAR-4 ovarian
OVCAR-5 ovarian = test system: OVCAR-5 ovarian
OVCAR-8 ovarian = test system: OVCAR-8 ovarian
PC-3 prostate = test system: PC-3 prostate
RPMI-8226 leukemia = test system: RPMI-8226 leukemia
RXF 393 renal = test system: RXF 393 renal
SF-268 CNS = test system: SF-268 CNS
SF-295 CNS = test system: SF-295 CNS
SF-539 CNS = test system: SF-539 CNS
SK-MEL-2 melanoma = test system: SK-MEL-2 melanoma
SK-MEL-28 melanoma = test system: SK-MEL-28 melanoma
SK-MEL-5 melanoma = test system: SK-MEL-5 melanoma
SK-OV-3 ovarian = test system: SK-OV-3 ovarian
SN12C renal = test system: SN12C renal
SNB-19 CNS = test system: SNB-19 CNS
SNB-75 CNS = test system: SNB-75 CNS
SW-620 colon = test system: SW-620 colon
T-47D breast = test system: T-47D breast
TK-10 renal = test system: TK-10 renal
U251 CNS = test system: U251 CNS
UACC-257 melanoma = test system: UACC-257 melanoma
UACC-62 melanoma = test system: UACC-62 melanoma
UO-31 renal = test system: UO-31 renal

Measured: TGI

COc1ccn(CC(=O)c2cc3ccccc3[nH]2)c(=O)n1
> 100 µM: all assays above
